In patent US20040058903A1, “Benzamide compounds as apo b secretion inhibitors” (priority 2000, published 2004):

How the values were obtained:
ddY-mice = experiment: Lipids lowering effect on ddY-mice; type: in vivo; conditions: male ddY-mice, oral dose 32 mg/kg, 2 hr after administration, percent relative to baseline (0 hr); for Cholesterol (% of 0 hr) 2 hr: plasma total-cholesterol; for Triglyceride (% of 0 hr) 2 hr: plasma triglyceride
Text: Test 2: Lipids Lowering Effect on ddY-Mice
Male ddy-mice were housed in temperature- and humidity-controlled rooms and fed with laboratory chow. The animals were randomized according to their body weight and deprived of food just before the experiment. A blood sample (baseline blood sample) was collected from the retro orbital venous plexus before administration of the test drug, and then the animals were orally dosed with the test drug in a vehicle (aqueous solution of 0.5% methylcellulose). Blood samples were drawn at 2 hours after drug administration for the measurement of cholesterol and triglyceride.
Plasma total-cholesterol and plasma triglyceride were determined by conventional enzyme-methods using commercially available kits. The cholesterol CII-Test Wako (Wako Pure Chemical Industries, Ltd.) was used for the measurement of cholesterol, and the triglyceride E-test Wako (Wako Pure Chemical Industries, Ltd.) was used for the measurement of triglyceride.
Lipids lowering effects were shown in percent relative to the baseline level (level at 0 hr).

Apo B secretion = experiment: Measurement of inhibition of Apo B secretion (HepG2 cells, ELISA); type: cell-based; conditions: 15-hour incubation, 0.1% DMSO treated cells as controls; for inhibition at 1 µM: Homo sapiens, 10^−6 M
Protocol: Test 1: Measurement of Inhibition of Apo B Secretion
HepG2 cells were seeded in Eagles medium containing 10% fetal calf serum (FCS) at a density of 30000 cells/well in 96-well plates and allowed to grow for 3 days before treatment. At this time, the medium was replaced with fresh medium containing 0.1% dimethyl sulfoxide (DMSO) and the indicated concentrations of a test compound. After 15-hour incubation, the amount of Apo B and Apo AI accumulated in the media was determined by ELISA.
The assay was carried out at room temperature. A flat bottomed micro ELISA plate (manufactured by Nunc) was coated with an anti Apo B monoclonal antibody solution ([…] in 0.05% carbonate buffer, pH 9.6) by adding the antibody solution at a volume of 100 μl per well. After 1-hour incubation on a plate mixer, the unbound materials were removed by washing the well 3 times with a washing buffer (phosphate buffered saline, pH 7.2 containing 0.1% bovine serum albumin and 0.05% Tween-20). Then 20 μl of […] and 100 μl of a solution of peroxidase coupled anti Apo B antibody were added. After 1-hour incubation on a plate mixer, washing was performed 3 times to remove the unbound materials. A freshly prepared substrate solution (2.5 mg/ml ortho-phenylene diamine and 0.018% H2Oz in 0.11 M Na2HPO4-0.044 M sodium citrate buffer, pH 5.4) at a volume of 200 μl was then added to each well. After 20-minute incubation, the enzyme reaction was terminated by adding 50 μl of 0.5 M sulfuric acid. Absorbance of each well was determined at 490 nm using a microplate reader. Apo B concentration was calculated from a standard curve generated from purified Apo B standard that was run in parallel in the same plate. Inhibition of Apo B secretion by the test compound is calculated taking […] treated cells as controls.
Measurement of Apo AI was performed similar to that of Apo B, except for diluting the sample 11-fold with a dilution buffer (phosphate buffered saline, pH 7.2 containing 0.5% bovine serum albumin and 0.05% Tween-20). […]

SMILES | Cholesterol (% of 0 hr) 2 hr (ddY-mice) | Triglyceride (% of 0 hr) 2 hr (ddY-mice) | inhibition at 1 µM (Apo B secretion) [%] | Inhibition of Apo B secretion at 10^−6 M (%) (Apo B secretion)
O=C(Nc1ccc(CCCc2ccccn2)cc1)c1ccccc1-c1ccc(C(F)(F)F)cc1 [Example 25, N-{4-[3-(2-pyridinyl)propyl]phenyl}-4′-(trifluoromethyl)-1,1′-biphenyl-2-carboxamide] | 78 % of 0 hr | 23 % of 0 hr | – | –
Nc1cccc(CCCc2ccc(NC(=O)c3ccccc3-c3ccc(C(F)(F)F)cc3)cc2)n1 [Example 44, N-{4-[3-(6-amino-2-pyridinyl)propyl]phenyl}-4′-(trifluoromethyl)-1,1′-biphenyl-2-carboxamide] | – | – | 100 | –
O=C(Nc1ccc(NCCc2ccccn2)cc1)c1ccccc1-c1ccc(C(F)(F)F)cc1 [Example 59, N-(4-{[2-(2-pyridinyl)ethyl]amino}phenyl)-4′-(trifluoromethyl)-1,1′-biphenyl-2-carboxamide] | 77 % of 0 hr | 15 % of 0 hr | – | –
O=C(Nc1ccc(NCCc2ccccn2)cc1)c1ccccc1Nc1cccc(C(F)(F)F)c1 [Example 64, N-(4-{[2-(2-pyridinyl)ethyl]amino}phenyl)-2-[3-(trifluoromethyl)-anilino]benzamide] | – | – | 100 | –
O=C(Cc1ccccn1)Nc1ccc(NC(=O)c2ccccc2-c2ccc(C(F)(F)F)cc2)cc1 [Example 65, N-{4-[(2-pyridinylacetyl)amino]phenyl]-4′-(trifluoromethyl)-1,1′-biphenyl-2-carboxamide] | 83 % of 0 hr | 36 % of 0 hr | – | 92.2
